From PMC3770646, “Isolation of an Orally Active Insecticidal Toxin from the Venom of an Australian Tarantula” (PLoS ONE, 2013)
Where two headings read alike, the source gives them in different places. Where a SMILES comes first, the peptide text is derived from it. Bridges are numbered along the chain shown (N, C = ends).

Key:
H. armigera = details: ref [61], cited from earlier work
Text: Table 2 Comparison of OAIP-1 with pyrethroid insecticides. | column: Oral LD50 (nmol/g)

Helicoverpa armigera = assay: Assay of synergism of imidacloprid and sOAIP-1 in agar diet; type: in vivo; details: H. armigera fed 100 pmol of the single insecticide in agar diet, mean ±SEM of three replicates of 10
Method: (§1) For feeding assays, an agar-based insect diet was created based on literature information (Table S1). Instead of using a separate preparation as a vitamin supplement, the commercially available children's vitamin Pentavite (Bayer, Leverkusen, Germany) was added after the agar had cooled below 65°C. Mealworms were fed 100 µL of the agar diet, with or without 20 µL toxin (or water for untreated controls). For the choice test, the same size Petri dish was divided in half and 50 µL of either toxin-treated or untreated agar was pipetted onto each half and mortality was recorded after 48 h. Cotton bollworms (Helicoverpa armigera, Lepidoptera: Noctuidae) were fed 5 µL toxin (or water for untreated controls) in 20 µL of agar diet, and maintained in 12-well tissue culture dishes. For assays of synergism using 100 pmol imidacloprid (Sigma-Aldrich) and 100 pmol sOAIP-1, 20 µL of one toxin or 10 µL of each toxin was incorporated into the agar diet for H. armigera. After all the treated diet was consumed, untreated diet was supplied ad libitum.
In all experiments, the mortality of untreated insects was used to correct the data for mortality due to injection of toxin or incorporation in the diet. […]

[1] = system: mealworms (larval Tenebrio molitor); assay: Feeding assay, toxin in agar diet fed to mealworms; type: in vivo; details: corrected for control mortality, three replicates of 10
Method: Chicken feed was provided ad libitum for mealworm food. A Whatman filter paper saturated with distilled water was used to maintain humidity in all mealworm experiments except feeding assays, which used the synthetic orally active insecticidal peptide 1 (sOAIP-1) in the agar diet described below. The agar diet allowed a homogenous mixture of toxin and diet to be prepared so preferential feeding on untreated diet would not be possible. All insects were maintained at 24.5°C in the dark at ambient humidity in sterile Petri dishes.
as §1, with “For assays of synergism using 100 pmol imidacloprid (Sigma-Aldrich) and 100 pmol sOAIP-1, 20 µL of one toxin or 10 µL of each toxin was incorporated into the agar diet for H. armigera. After all the treated diet was consumed, untreated diet was supplied ad libitum.” left out

[2] = In vitro stability in undiluted insect hemolymph; type: in vitro ADME, Helicoverpa armigera; details: undiluted H. armigera hemolymph, 30 µg peptide in 200 µL, ambient temperature (23°C), dark
Method: Fourth-instar H. armigera larvae were decapitated and the gut was removed using forceps. The carcasses were spun in a benchtop centrifuge (14,000 g for 10 min) to separate the hemolymph from exoskeleton. For each time point, 200 µL of undiluted hemolymph was mixed with 30 µg of sOAIP-1. The hemolymph/sOAIP-1 solution was maintained in the dark at room temperature, and immediately before RP-HPLC analysis the hemolymph/sOAIP-1 solution was again spun in a benchtop centrifuge (14,000 g for 10 min). After centrifugation, 30 µg of a control peptide, ω-HXTX-Hv1a, was added to aid quantification and the sample was filtered using a […] filter. The toxins were separated by RP-HPLC using a linear acetonitrile gradient (5–40% over 40 min), and the identity of each toxin was confirmed using mass spectrometry. The percentage of intact sOAIP-1 present at each time point was determined by comparing the area of the sOAIP-1 peak to that at zero time, both measured relative to the area of the ω-HXTX-Hv1a peak.

[3] = system: mealworms (larval Tenebrio molitor); assay: Feeding choice test, toxin-treated and untreated agar; type: in vivo
Method: as §1
In addition to toxicity assays, a choice test was conducted to determine whether sOAIP-1 is repellent. […] Conversely, if the toxin-treated agar was preferentially consumed, it might indicate that sOAIP-1 acts as an attractant.

[4] = system: mealworms (larval Tenebrio molitor); assay: Injection of toxin into mealworms; type: in vivo; details: injection into metathoracic pleurite, corrected for control mortality, three replicates of 10
Method: Termites were fed a 20% α-cellulose matrix (Sigma-Aldrich, St. Louis, MO) mixed with water; the toxin was dissolved in water, and 20 µL was added to the cellulose matrix to a final concentration of 350 nmol/g, and then pipetted into Petri dishes. After the cellulose matrix had dried (to prevent termites from drowning in wet bait), nine worker termites and one soldier termite were added to each dish; each toxin dose was replicated three times. As a comparison, toxins were also injected into mealworms at a concentration of 350 nmol/g in three replicates of 10 insects.
Mealworms were purchased from Pisces Enterprises (Kenmore, QLD, Australia). Insects between 3rd and 4th instar (∼180 mg/individual) were used. For each mealworm, 2.6 µL of toxin diluted in ultrapure water was injected into the metathoracic pleurite. Injections were performed using a 29.5 gauge insulin syringe (B–D Ultra-Fine, Terumo Medical Corporation, Elkton, MD). Three replicates of 10 insects were used for each toxin concentration, and the same number of control insects were injected with ultrapure water and maintained under the same conditions.
Chicken feed was provided ad libitum for mealworm food. […] All insects were maintained at 24.5°C in the dark at ambient humidity in sterile Petri dishes. […]

[5] = pyrethroid-resistant strain BK99R9 (R)

## Cc1c(COC(=O)[C@@H]2[C@H](/C=C(\Cl)C(F)(F)F)C2(C)C)cccc1-c1ccccc1 (racemic) [Bifenthrin]
H. armigera; [5]
  Oral LD50: 20.6 nmol/g
H. armigera; susceptible strain BK77 (S)
  Oral LD50: 1.1 nmol/g

## CC1(C)[C@H](C(=O)O[C@H](C#N)c2cccc(Oc3ccccc3)c2)[C@@H]1C=C(Br)Br [Deltamethrin]
H. armigera; [5]
  Oral LD50: 0.46 nmol/g
H. armigera; susceptible strain BK77 (S)
  Oral LD50: 0.35 nmol/g

## CCOc1ccc(C(C)(C)COCc2cccc(Oc3ccccc3)c2)cc1 [Etofenprox]
H. armigera; [5]
  Oral LD50: 55.9 nmol/g
H. armigera; susceptible strain BK77 (S)
  Oral LD50: 0.31 nmol/g

## CC(C)C(C(=O)OC(C#N)c1cccc(Oc2ccccc2)c1)c1ccc(Cl)cc1 (centres unmarked) [Fenvalerate]
H. armigera; [5]
  Oral LD50: 41.9 nmol/g
H. armigera; susceptible strain BK77 (S)
  Oral LD50: 7.8 nmol/g

## O=[N+]([O-])NC1=NCCN1Cc1ccc(Cl)nc1 [imidacloprid]
Helicoverpa armigera
  mortality at 48 h: 31±3%

## CC[C@H](C)[C@@H]1NC(=O)[C@@H]2CSSC[C@H](NC(=O)[C@@H](N)CC(=O)O)C(=O)NCC(=O)N[C@@H](Cc3c[nH]cn3)C(=O)N[C@@H](CC(C)C)C(=O)N[C@@H](Cc3c[nH]cn3)C(=O)N[C@@H](CC(=O)O)C(=O)N3CCC[C@H]3C(=O)N[C@H]3CSSC[C@H](NC(=O)[C@H](CCC(N)=O)NC(=O)[C@H](CC(C)C)NC(=O)CNC1=O)C(=O)N[C@@H](CCCNC(=N)N)C(=O)N[C@@H](Cc1ccc(O)cc1)C(=O)NCC(=O)N[C@@H](CCCCN)C(=O)N[C@H](C(=O)N[C@@H](CC(C)C)C(=O)N[C@H](C(=O)N[C@@H](CCCNC(=N)N)C(=O)O)C(C)C)CSSC[C@H](NC(=O)[C@H]([C@@H](C)O)NC(=O)[C@H](CCCNC(=N)N)NC(=O)[C@H](Cc1c[nH]cn1)NC(=O)CNC(=O)[C@@H]1CCCN1C(=O)[C@H](CCCNC(=N)N)NC(=O)[C@H](CC(=O)O)NC(=O)[C@H](CC(N)=O)NC(=O)[C@@H]1CCCN1C3=O)C(=O)N2 [sOAIP-1] (H-DCGHLHDPCPNDRPGHRTCCIGLQCRYGKCLVR-OH; disulfide 2-20, 9-25, 19-30; N-terminus and C-terminus assumed)
Helicoverpa armigera
  mortality at 48 h: 4±3%
[1]
  LD50, oral administration: 170.5 ± 0.2 nmol/g
[2]; cerebrospinal or other body fluid, 24 h, RP-HPLC peak area relative to ω-HXTX-Hv1a, read-out: remained intact
  remaining at 24 h: ~40%
[2]; cerebrospinal or other body fluid, 72 h, RP-HPLC peak area relative to ω-HXTX-Hv1a, read-out: peptide degraded
  metabolised at 72 h: 90%
[2]; one-week incubation, RP-HPLC
  remained intact: none remained intact
[3]; mealworms offered toxin-treated and untreated agar, 1 pmol toxin, three replicates of 10
  mortality at 48 h in choice test: no mortality
[3]; mealworms, choice test compared with non-choice test
  repellent or attractant effect: neither a repellent that repels insects nor an attractant
[4]
  LD50, injected toxin: 1.84 ± 0.8 nmol/g
